Source: ChEMBL document CHEMBL5257078, “Alkaloids and Polyacetylenes from Hippobroma longiflora with Antiangiogenesis Properties” (J Nat Prod, 2023)
In brackets after ≈: the same amount, converted by molar mass.

Experiments:
[1] = Antiangiogenic activity in human EPC cells assessed as suppression of EPC tube formation incubated for 24 hrs by microscopic analysis; assay type: functional, cell-based
[2] = Cytotoxicity against human EPC cells assessed as LDH release; assay type: toxicity, cell-based

IC50 [1] | Structure (SMILES) | Activity [2]
3.7 µg/mL (≈ 7.96 µM) | CNC(=O)c1cc(Oc2ccc(NC(=O)Nc3ccc(Cl)c(C(F)(F)F)c3)cc2)ccn1 [SORAFENIB] | –
32 µg/mL (≈ 87.1 µM) | C[N@+]1([O-])CO[C@H](c2ccccc2)C[C@@H]1CCCCCC(=O)c1ccccc1 | Non-Toxic
21.1 µg/mL (≈ 98.5 µM) | C/C=C/C#C/C=C\c1c(O)cccc1CO | Non-Toxic
24.5 µg/mL (≈ 114 µM) | C/C=C/C#C/C=C/c1c(O)cccc1CO | Non-Toxic

The remaining lines, values behind:

Structure (SMILES) | IC50 [1] | Activity [2]
C/C=C/C#C/C=C/[C@@]1(O)[C@H](CO)CC=C[C@H]1O | 27.6 µg/mL (≈ 118 µM) | Non-Toxic
O=C(c1ccccc1)[C@@H]1CN2O[C@@H]1CCC[C@H]2C[C@H](O)c1ccccc1 | 30.6 µg/mL (≈ 87.1 µM) | –
O=C(c1ccccc1)[C@H]1CN2O[C@H]1CCC[C@@H]2C[C@H](O)c1ccccc1 | 44 µg/mL (≈ 125 µM) | Non-Toxic
O=C(c1ccccc1)[C@H]1CN2O[C@@H]1CCC[C@H]2C[C@H](O)c1ccccc1 | 33.4 µg/mL (≈ 95 µM) | Non-Toxic
